“Also recorded” adds a separate entry of the source. Where two headings read alike, the source gives them in different places.
Tests used:
[1] = tested on: MM074-R melanoma cell line; conditions: 10% growth reduction
[2] = tested on: MM043 melanoma cell line; experiment: Cell proliferation, crystal violet assay, MM043; conditions: for IC10 / CI (combination index): MM043; for IC10: 10% growth reduction; for CI (combination index): PI3K inhibitor at IC10 in combination with vemurafenib
[3] = tested on: MM074 melanoma cell line; experiment: Cell proliferation, crystal violet assay, MM074; conditions: for IC10: 10% growth reduction
[4] = tested on: MM074 melanoma cell line; experiment: Apoptosis determination (annexin V), MM074; type: cell-based, human
[5] = tested on: key proteins of MAPK and p53/PI3K/AKT pathways; experiment: Western blot analysis, MM043 cells; type: cell-based, human; conditions: MM043, Western blotting
Method: (§1) Cells were plated in Petri dishes (3×10^6 cells/dish) in culture medium. […] Then, cells were exposed or not to effectors for 30 minutes or 24 hours. Cells were lysed using a detergent cocktail (M-PER Mammalian Extraction Buffer) supplemented with protease inhibitors (Halt Protease Inhibitor Cocktail) and phosphatase inhibitors (Halt Phosphatase Inhibitor Cocktail) (all from Pierce, Rockford, Ill., USA). Protein concentrations were determined by the BCA Protein Assay (Pierce) using bovine serum albumin as the standard. Equal amounts of extracted proteins (35 μg) were subjected to 10 or 12% SDS-PAGE and electrotransferred onto nitrocellulose membranes using iBlot® Dry Blotting System (Invitrogen, Life Technologies, Gent, Belgium). Immunodetections were performed using antibodies raised against ^V600EBRAF (VE1, 1/1000) (from Spring Bioscience, Pleasanton, Calif., USA), pBRAF (Ser 445) (1/1000), pCRAF (Ser 338) (1/1000), CRAF (1/1000), p110α (C73F8, 1/1000), PTEN (138G6, 1/1000), pAKT (Ser 473) (D9E, 1/500), AKT (40D4, 1/1000), p21 (12D1, 1/1000) and p53 Ser15 (16G8) (all from Cell Signaling Technology, Danvers, Mass., USA), BRAF (F-7, 1/200), pERK (Tyr 204) (E-4, 1/1000), ERK2 (C-14, 1/2000), p53 (DO-1, 1/200) and MDM2 (SMP14, 1/200) (all from Santa Cruz Biotechnology, Santa Cruz, Calif., USA), and MDM4 (8C6, 1/1000), […]-actin (C4, 1/5000) (from Millipore, Temecula, Calif., USA). Peroxidase-labeled anti-rabbit IgG antibody (1/5000) or peroxidase-labeled anti-mouse IgG antibody (1/5000) (both from Amersham Pharmacia Biotech, Roosendaal, The Netherlands) were used as secondary reagents to detect corresponding primary antibodies. […] Immunostaining signals were digitalized with a PC-driven LAS-3000 CCD camera (Fujifilm, Tokyo, Japan), using a software specifically designed for image acquisition (Image Reader, Raytest®, Straubenhardt, Germany). Immunoreactive band intensities were quantified using the software AIDA® Image Analyser 3.45 (Raytest®).

[6] = tested on: key proteins of MAPK and p53/PI3K/AKT pathways; experiment: Western blot analysis, MM074 cells; type: cell-based, human; conditions: MM074, Western blotting
Method: as §1

[7] = tested on: MM043 melanoma cell line; experiment: Apoptosis determination (annexin V), MM043; type: cell-based, human
[8] = tested on: MM043 xenografts; experiment: Human melanoma xenografts, MM043; type: in vivo, mice
Method: (§2) Mice were injected subcutaneously (right and left flank) with 5×10^6 MM074 (vemurafenib sensitive), MM043 (with intrinsic resistance) or MM074-R cells (with acquired resistance) in 200 μl of 50% Matrigel (from Trevigen, Gaithersburg, Md.) in saline. When tumors reached 200 mm^3, mice were randomized into groups of 8 and daily intraperitoneally injected with vehicle, 45 mg/kg vemurafenib, 50 mg/kg PRIMA-1^Met or vemurafenib plus PRIMA-1^Met. […] Tumor volumes were calculated using the formula (L×W×W)/2 (Ji Z et al., 2013, Clin Cancer Res Off J Am Assoc Cancer Res. 19(16):4383-4391), in which L is the length and W is the width as measured with a vernier calliper.
(§3) The sensitive melanoma cells (MM074) xenografts were used as control. After subcutaneous cell injection, tumor growth was monitored to reach volumes of about 200 mm^3.

[9] = tested on: key proteins of MAPK and p53/PI3K/AKT pathways; experiment: Western blot analysis, MM074-R cells; type: cell-based, human; conditions: Western blotting, 50 and 75 μM for 24 hours
Method: as §1

[10] = tested on: MM133 melanoma cell line; experiment: Cell proliferation, crystal violet assay, MM133; type: cell-based; conditions: Homo sapiens, V600K, read-out: IC50 (μM) vemurafenib
Method: (§4) Cells were distained under running tap water and subsequently lysed with 0.2% Triton X-100 for 90 minutes (v/v in water).
(§5) The IC50 and IC10 values represent the inhibitory concentrations producing, respectively, 50% and 10% growth reduction and were calculated from dose response curves using GraphPad Prism software (GraphPad Software, La Jolla, Calif., USA).
(§6) CI values between 0.9 and 1.1 indicates an additive effect; values between 0.7 and 0.9, a moderate synergism; values lower than 0.7, a strong synergism; and antagonism is represented by CI values higher than 1.1.

[11] = tested on: MM074 xenografts; experiment: Human melanoma xenografts, MM074; type: in vivo, mice
Method: as §2, §3

[12] = tested on: MM074-R melanoma cell line; experiment: cells; conditions: Homo sapiens, read-out: IC50 (μM) vemurafenib
[13] = tested on: MM050 melanoma cell line; experiment: Cell proliferation, crystal violet assay, MM050; type: cell-based; conditions: Homo sapiens, V600E, read-out: IC50 (μM) vemurafenib
Method: as §4, §5

[14] = tested on: ERK and AKT phosphorylation; experiment: Western blot, ERK and AKT phosphorylation in panel of vemurafenib-resistant lines; type: cell-based, human
Method: Representative Western blots illustrating the evolution of (A) ERK and (B) AKT phosphorylation in melanoma cells exposed to increasing concentrations of vemurafenib (0.1, 1 and 10 μM) for 24 hours. Ratio of phosphorylated protein over total protein were calculated from densitometry evaluation.
Cells were plated in Petri dishes (3×10^6 cells/dish) in culture medium. […] Then, cells were exposed or not to effectors for 30 minutes or 24 hours. Cells were lysed using a detergent cocktail (M-PER Mammalian Extraction Buffer) supplemented with protease inhibitors (Halt Protease Inhibitor Cocktail) and phosphatase inhibitors (Halt Phosphatase Inhibitor Cocktail) (all from Pierce, Rockford, Ill., USA). Protein concentrations were determined by the BCA Protein Assay (Pierce) using bovine serum albumin as the standard. Equal amounts of extracted proteins (35 μg) were subjected to 10 or 12% SDS-PAGE and electrotransferred onto nitrocellulose membranes using iBlot® Dry Blotting System (Invitrogen, Life Technologies, Gent, Belgium). […] Immunostaining signals were digitalized with a PC-driven LAS-3000 CCD camera (Fujifilm, Tokyo, Japan), using a software specifically designed for image acquisition (Image Reader, Raytest®, Straubenhardt, Germany). Immunoreactive band intensities were quantified using the software AIDA® Image Analyser 3.45 (Raytest®).

[15] = tested on: MM034 melanoma cell line; experiment: Cell proliferation, crystal violet assay, MM034; type: cell-based; conditions: Homo sapiens, V600E, read-out: IC50 (μM) vemurafenib
Method: as §4, §5

[16] = tested on: panel of V600E/K BRAF melanoma cell lines; experiment: Cell proliferation and apoptosis in panel of V600E/K BRAF melanoma cell lines; conditions: Homo sapiens
[17] = tested on: MM070 melanoma cell line; experiment: Cell proliferation, crystal violet assay, MM070; type: cell-based; conditions: Homo sapiens, V600E, read-out: IC50 (μM) vemurafenib
Method: as §4, §5

[18] = tested on: MM029 melanoma cell line; experiment: Cell proliferation, crystal violet assay, MM029; type: cell-based; conditions: Homo sapiens, V600K, read-out: IC50 (μM) vemurafenib
Method: as §4, §5, §6

[19] = tested on: MM054 melanoma cell line; experiment: Cell proliferation, crystal violet assay, MM054; type: cell-based; conditions: Homo sapiens, V600E, read-out: IC50 (μM) vemurafenib
Method: as §4, §5, §6

[20] = tested on: MM032 melanoma cell line; experiment: Cell proliferation, crystal violet assay, MM032; type: cell-based; conditions: Homo sapiens, V600E, read-out: IC50 (μM) vemurafenib
Method: as §4, §5, §6

[21] = tested on: melanoma; conditions: ipilimumab only group, 9 of 15 responders; cited from earlier work
[22] = Homo sapiens, read-out: IC50 (μM) vemurafenib

Compound: O=c1cc(N2CCOCC2)oc2c(-c3ccccc3)cccc12 [LY294002]
- IC10 [1]: 5 µM
- IC10 [2]: 5 µM
- CI (combination index) [2]: 0.56
- IC10 ([3]; MM074): 5 µM

Compound: COc1ccc(-c2cc3c(C)nc(N)nc3n([C@H]3CC[C@H](OCCO)CC3)c2=O)cn1 [PF-04691502]
- IC10 [1]: 0.1 µM
- apoptosis (annexin V-positive cells) ([4]; MM074, PI3K inhibitor at IC10 in combination with vemurafenib, 2 days): increased
- AKT phosphorylation [5]: inhibited
- AKT phosphorylation [6]: inhibited
- IC10 [2]: 0.1 µM
- CI (combination index) [2]: 0.64
- apoptosis (annexin V-positive cells) ([7]; MM043, PI3K inhibitor at IC10 in combination with vemurafenib, 2 days): significant increase in apoptosis
- IC10 ([3]; MM074): 0.1 µM
- cell proliferation ([3]; MM074, PI3K inhibitor at IC10 in combination with increasing concentrations of vemurafenib): not significantly affected

Compound: COCC1(CO)C(=O)C2CCN1CC2 (centres unmarked) [PRIMA-1^Met, 2-hydroxymethyl-2-methoxymethylazabicyclo[2.2.2]octan-3-one]
- IC10 [1]: 40 µM
- AKT phosphorylation [5]: inhibited AKT phosphorylation; also recorded: inhibition of p110α expression and AKT phosphorylation
- PTEN expression [5]: stimulated PTEN expression; also recorded: increase in PTEN levels
- p53 expression / p53 pathway [5]: restored p53 expression; also recorded: activation of the p53 pathway
- p110α expression [5]: inhibition of p110α expression and AKT phosphorylation
- mean tumor volume ([8]; after 20 days of treatment): 1080 mm^3
- AKT phosphorylation [6]: inhibition of p110α expression and AKT phosphorylation
- PTEN expression [6]: increase in PTEN levels
- p110α expression [6]: inhibition of p110α expression and AKT phosphorylation
- AKT phosphorylation [9]: decrease of p110α expression and AKT phosphorylation
- p21 and PTEN levels [9]: upregulation of p21 and PTEN levels
- p53 expression and phosphorylation [9]: dose-dependent increase of p53 expression and phosphorylation
- p110α expression [9]: decrease of p110α expression and AKT phosphorylation

Compound: CCCS(=O)(=O)Nc1ccc(F)c(C(=O)c2c[nH]c3ncc(-c4ccc(Cl)cc4)cc23)c1F [vemurafenib, N-(3-{[5-(4-chlorophenyl)-1H-pyrrolo[2,3-b]pyridin-3-yl]carbonyl}-2,4-difluorophenyl)propane-1-sulfonamide]
- IC50 [10]: 2 µM
- average tumor volume ([11]; 28 days, 45 mg/kg daily intraperitoneally): ~190 mm3
- tumor growth ([11]; as of day 4 after starting treatment): inhibited tumor growth
- IC50 [12]: 20 µM
- IC50 [13]: 0.1 µM
- apoptosis (annexin V-positive cells) ([4]; MM074, 2 days): induces apoptosis
- pERK ([14]; all resistant lines, 24 hours): similarly inhibited in a concentration-dependent manner
- pAKT ([14]; resistant lines MM032, MM043 and MM133, 24 hours): unaffected in three out of five resistant lines
- AKT phosphorylation [5]: neither AKT phosphorylation nor PTEN expression were affected
- PTEN expression [5]: neither AKT phosphorylation nor PTEN expression were affected
- ERK phosphorylation (pERK) ([5]; 24 hours): similarly inhibited
- tumor growth ([8]; 45 mg/kg vemurafenib and/or 50 mg/kg PRIMA-1^Met daily IP): did not significantly affected tumor growth
- mean tumor volume ([8]; after 28 days of treatment): ~1130 mm^3
- IC50 [15]: 0.1 µM
- AKT phosphorylation [6]: strongly inhibited
- PTEN expression [6]: concentration-dependent increase of PTEN expression
- ERK phosphorylation (pERK) ([6]; 24 hours): similarly inhibited
- IC50 ([16]; read-out: IC50, cell lines found to be resistant): > 10 µM
- IC50 ([16]; read-out: IC50, cell lines found to be sensitive): ≤ 2 µM
- IC50 [17]: 0.05 µM
- IC50 [2, 22]: 20 µM
- IC50 [18]: 30 µM
- IC50 [19]: 40 µM
- apoptosis (annexin V-positive cells) ([7]; MM043, 2 days): no apoptosis is detected
- IC50 [3, 22]: 0.1 µM
- IC50 [20]: 2 µM

Compound: ipilimumab: an antibody raised against CTLA-4 molecule on T-cells
- responders who maintained an objective response for at least 2 years [21]: 60%

Source: patent US20170165240A1, “NEW STRATEGIES FOR TREATING MELANOMA” (Université Libre de Bruxelles, priority 2014, published 2017)
